Target: T1, TrkB-wt (Mus musculus, UniProt P15209)
T1 construct: gene Ntrk2; full-length receptor with kinase domain, pcDNA3, transiently overexpressed in HEK293; 130 kDa mature and 90 kDa underglycosylated
Assay: Western blot and immunofluorescence of pTrk-kin, transfected HEK293
Type: cell-based
Details: no neurotrophin, constitutive kinase activity; concentrations only in figure

T1 sequence (P15209 32-821): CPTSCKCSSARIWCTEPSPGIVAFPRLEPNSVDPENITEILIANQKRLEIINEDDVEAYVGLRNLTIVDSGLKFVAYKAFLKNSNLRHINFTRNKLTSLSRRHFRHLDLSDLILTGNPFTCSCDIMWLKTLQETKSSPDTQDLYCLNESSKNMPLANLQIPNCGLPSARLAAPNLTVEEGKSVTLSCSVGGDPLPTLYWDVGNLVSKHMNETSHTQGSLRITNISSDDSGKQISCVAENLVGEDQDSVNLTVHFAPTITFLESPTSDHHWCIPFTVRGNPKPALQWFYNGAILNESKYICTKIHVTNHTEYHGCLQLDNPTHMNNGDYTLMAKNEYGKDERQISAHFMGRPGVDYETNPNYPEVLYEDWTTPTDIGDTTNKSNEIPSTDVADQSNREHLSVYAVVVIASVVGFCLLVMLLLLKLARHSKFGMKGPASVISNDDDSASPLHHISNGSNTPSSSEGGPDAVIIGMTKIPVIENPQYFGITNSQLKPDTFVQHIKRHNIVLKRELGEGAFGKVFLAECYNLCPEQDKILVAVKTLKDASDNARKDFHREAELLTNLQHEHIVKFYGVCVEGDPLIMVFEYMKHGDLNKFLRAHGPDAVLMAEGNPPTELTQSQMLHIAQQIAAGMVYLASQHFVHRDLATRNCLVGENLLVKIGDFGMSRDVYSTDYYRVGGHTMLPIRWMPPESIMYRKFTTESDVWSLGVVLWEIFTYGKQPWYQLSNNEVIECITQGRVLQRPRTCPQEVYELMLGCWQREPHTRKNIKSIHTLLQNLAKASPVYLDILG

Row | SMILES | Western blot and immunofluorescence of pTrk-kin, transfected HEK293
1 | CN1CCN(c2ccc(C(=O)Nc3n[nH]c4ccc(Cc5cc(F)cc(F)c5)cc34)c(NC3CCOCC3)c2)CC1 [Entrectinib] | TrkB self-activity is reduced upon inhibitor treatment
2 | O=C(Nc1cnn2ccc(N3CCC[C@@H]3c3cc(F)ccc3F)nc12)N1CC[C@H](O)C1 [LOXO-101] | TrkB self-activity is reduced upon inhibitor treatment

Source: article PMC11405271, “Atypical cellular responses mediated by intracellular constitutive active TrkB (NTRK2) kinase domains and a solely intracellular NTRK2-fusion oncogene” (Cancer Gene Therapy, 2024)
